Results on ten compounds are retold here after ChEMBL document CHEMBL1201862, “PubChem BioAssay data set” (2004).

Some test systems named below: U-251; HCT-15; NCI-H226; OVCAR-8; SN12C; OVCAR-3; HOP-62; A549; M14; UO-31; KM12; NCI/ADR-RES; PC-3; OVCAR-4; RPMI-8226; UACC-62; SK-MEL-2; SR; SF-539; UACC-257.
Common to all, as to assay: NCI tumour cell line growth inhibition, 48 h

The structures appear in SMILES notation.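 Tested at 5 concentrations; 48 h exposure; 96-well plates; endpoints linearly interpolated, else capped at highest concentration. GI50 is the concentration that inhibits growth by half.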 Active and inactive are the calls of the source. Cut-off read from the data, not from the text of the source: active = GI50 up to about 1.1 µM and inactive = higher.

On to `Cc1cccc(Br)[n+]1[O-]`, for which the GI50 in the test with U-251 is > 100 µM (inactive); in the test on HCT-15, over 100 µM; in the test on NCI-H226, 96.4 µM (inactive); with OVCAR-8, > 100 µM (inactive); in the test on SN12C, 97.1 µM (inactive); in the test with OVCAR-3, > 100 µM (inactive). For the same compound, the GI50 with HOP-62, in the test on A549, with M14, in the test with UO-31, in the test on KM12 and in the test with NCI/ADR-RES was > 100 µM (inactive) in each case. The GI50 in the test on PC-3, in the test on OVCAR-4, in the test with RPMI-8226, in the test with UACC-62, in the test on SK-MEL-2 and with SR was > 100 µM (inactive) each time. The GI50 in the test with SF-539 and in the test with UACC-257 was > 100 µM (inactive) throughout.

Take `C/C(=N\NC(=S)N1CC2CCC(CC2)C1)c1nccs1`: the GI50 in the test on U-251 was 0.185 µM (active); with HCT-15 it was 0.0516 µM; in the test with NCI-H226, 0.479 µM (active); in the test on OVCAR-8, 0.114 µM (active); in the test on SN12C, 0.853 µM (active); with OVCAR-3 it was 0.0415 µM (active). Also, the GI50 is 0.395 µM (active) with HOP-62; 0.19 µM (active) with A549; 0.249 µM (active) with M14; 0.129 µM (active) with UO-31; 0.133 µM (active) with KM12; < 0.0295 µM (active) in the test on NCI/ADR-RES. The GI50 was 0.228 µM (active) with PC-3; 0.261 µM (active) with OVCAR-4; 0.0347 µM (active) in the test with RPMI-8226; 0.132 µM (active) in the test on UACC-62; 0.679 µM (active) in the test with SK-MEL-2; 0.0716 µM (active) with SR. For the same compound, the results for the GI50 in the test on SF-539 and in the test on UACC-257 were 0.307 µM (active) and 0.113 µM (active), respectively.

As to `NC(=O)NCCCC(NC(=O)OCCCCCn1ccc(=O)[nH]c1=O)C(=O)O` (stereo not given), the GI50 was > 100 µM (inactive) with U-251; over 100 µM in the test with HCT-15; 63.2 µM (inactive) in the test on NCI-H226; > 100 µM (inactive) in the test on OVCAR-8; > 100 µM (inactive) in the test on SN12C; > 100 µM (inactive) in the test with OVCAR-3. The GI50 in the test with HOP-62, with A549, in the test with M14, in the test with UO-31, with KM12 and with NCI/ADR-RES was > 100 µM (inactive) in each case. The GI50 in the test on PC-3, in the test with OVCAR-4, in the test with RPMI-8226, with UACC-62, in the test on SK-MEL-2 and with SR was > 100 µM (inactive) each time. In addition, the GI50 in the test with SF-539 and with UACC-257 was > 100 µM (inactive) each time.

On to `COc1ccc(C(=O)CC(c2ccc(OC)c(OC)c2)c2c(O)oc3ccccc3c2=O)cc1OC` (stereo not given), for which the GI50 was > 100 µM (inactive) in the test on U-251; over 100 µM with HCT-15; > 100 µM (inactive) in the test on NCI-H226; > 100 µM (inactive) in the test with OVCAR-8; > 100 µM (inactive) in the test on SN12C; > 100 µM (inactive) in the test on OVCAR-3. Moreover, the GI50 with HOP-62, in the test on A549, in the test on M14, with UO-31, in the test on KM12 and in the test on NCI/ADR-RES was > 100 µM (inactive) throughout. Moreover, the GI50 in the test on PC-3 is > 100 µM (inactive); with OVCAR-4, > 100 µM (inactive); in the test on RPMI-8226, 95.1 µM (inactive); with UACC-62, > 100 µM (inactive); in the test with SK-MEL-2 it was > 100 µM (inactive); in the test with SR, > 100 µM (inactive). In addition, the GI50 in the test on SF-539 and with UACC-257 was > 100 µM (inactive) throughout.

Turning to `O=C(O)c1nc2ccc(C(F)(F)F)cc2nc1NCc1ccc(F)cc1`, the GI50 in the test with U-251 is 16.7 µM (inactive); in the test on HCT-15, 21.2 µM; with NCI-H226, 39.5 µM (inactive); with OVCAR-8, 21.5 µM (inactive); in the test on SN12C it was 17.5 µM (inactive); in the test on OVCAR-3 it was 8.34 µM (inactive). The GI50 with HOP-62 was 19.1 µM (inactive); in the test with A549, 19.1 µM (inactive); with M14, 18.5 µM (inactive); in the test on UO-31 it was 2.75 µM (inactive); with KM12 it was 26.4 µM (inactive); in the test with NCI/ADR-RES, 35.5 µM (inactive). For the same compound, the GI50 with PC-3 was 26.5 µM (inactive); in the test with OVCAR-4 it was > 100 µM (inactive); in the test on RPMI-8226, 21 µM (inactive); in the test on UACC-62, 15.9 µM (inactive); with SK-MEL-2 it was 19.5 µM (inactive); with SR, 15.3 µM (inactive). The results for the GI50 with SF-539 and in the test with UACC-257 were 20.1 µM (inactive) and 22.4 µM (inactive), respectively.

Turning to `CCN(CC)CCn1c(=O)c2ccccc2n2c3c(=O)n(C)c(=O)n(C)c3nc12`, the GI50 is 1.43 µM (inactive) in the test on U-251; 15.4 µM with HCT-15; 1.16 µM (inactive) in the test with NCI-H226; 1.84 µM (inactive) in the test with OVCAR-8; 1.53 µM (inactive) with SN12C; 4.06 µM (inactive) in the test with OVCAR-3. For the same compound, the GI50 with HOP-62 was 0.718 µM (active); in the test on A549, 0.321 µM (active); in the test with M14 it was 3.16 µM (inactive); in the test on UO-31, 2.11 µM (inactive); in the test with KM12 it was 1.77 µM (inactive); in the test on NCI/ADR-RES it was 3.33 µM (inactive). For the same compound, the GI50 with PC-3 was 2.38 µM (inactive); in the test on OVCAR-4, 4.27 µM (inactive); with RPMI-8226, 1.6 µM (inactive); with UACC-62 it was 0.762 µM (active); in the test on SK-MEL-2, 2.82 µM (inactive); in the test with SR it was 0.177 µM (active). The GI50 with SF-539 is 0.968 µM (active); in the test with UACC-257 it was 3.46 µM (inactive).

`COc1ccc(N2C(=O)CC(=O)N(NC(=O)C(C)Oc3ccccc3C)C2=S)cc1` (stereo not given): the GI50 in the test with U-251 is > 100 µM (inactive); with HCT-15, over 100 µM; with NCI-H226, > 100 µM (inactive); in the test with OVCAR-8, > 100 µM (inactive); with SN12C, > 100 µM (inactive); with OVCAR-3, > 100 µM (inactive). Further, the GI50 with HOP-62, in the test with A549, in the test on M14, in the test on UO-31, in the test with KM12 and in the test on NCI/ADR-RES was > 100 µM (inactive) throughout. For the same compound, the GI50 with PC-3, with OVCAR-4, in the test on RPMI-8226, in the test on UACC-62, with SK-MEL-2 and with SR was > 100 µM (inactive) in each case. Further, the GI50 in the test on SF-539 and in the test with UACC-257 was > 100 µM (inactive) each time.

With `O=S1(=O)CCN(Cc2ccccn2)CC1`, the GI50 is > 100 µM (inactive) in the test on U-251; over 100 µM in the test with HCT-15; > 100 µM (inactive) in the test on NCI-H226; > 100 µM (inactive) in the test with OVCAR-8; > 100 µM (inactive) with SN12C; 4.49 µM (inactive) in the test with OVCAR-3. The GI50 with HOP-62, with A549, in the test with M14, with UO-31, with KM12 and in the test on NCI/ADR-RES was > 100 µM (inactive) in each case. For the same compound, the GI50 with PC-3, in the test on OVCAR-4, in the test on RPMI-8226, with UACC-62, in the test with SK-MEL-2 and with SR was > 100 µM (inactive) in each case. Moreover, the GI50 in the test with SF-539 and with UACC-257 was > 100 µM (inactive) each time.

In the case of `FC(F)(F)C1(c2ccccc2)SCc2nc3ccccc3n21` (stereo not given), the GI50 in the test with U-251 is > 100 µM (inactive); in the test on HCT-15 it was 78.7 µM; in the test on NCI-H226, > 100 µM (inactive); in the test on OVCAR-8, > 100 µM (inactive); with SN12C, > 100 µM (inactive); with OVCAR-3, > 100 µM (inactive). Also, the GI50 with HOP-62 was > 100 µM (inactive); in the test on A549, > 100 µM (inactive); with M14 it was > 100 µM (inactive); in the test with UO-31 it was 55.5 µM (inactive); in the test on KM12, > 100 µM (inactive); in the test on NCI/ADR-RES, > 100 µM (inactive). The GI50 with PC-3 was 83.6 µM (inactive); in the test on OVCAR-4, > 100 µM (inactive); in the test on RPMI-8226, 70.5 µM (inactive); in the test on UACC-62, > 100 µM (inactive); with SK-MEL-2 it was > 100 µM (inactive); with SR, 35.2 µM (inactive). Also, the GI50 in the test with SF-539 and in the test on UACC-257 was > 100 µM (inactive) each time.

For the compound `Cc1cc(N2CCCCC2)nc2ccc(Cc3ccc4nc(N5CCCCC5)cc(C)c4c3)cc12`, the GI50 in the test with U-251 is > 100 µM (inactive); with HCT-15, 79.6 µM; in the test with NCI-H226, > 100 µM (inactive); in the test with OVCAR-8, > 100 µM (inactive); with SN12C, > 100 µM (inactive); with OVCAR-3, > 100 µM (inactive). The GI50 with HOP-62, in the test with A549, in the test with M14, in the test on UO-31, in the test with KM12 and with NCI/ADR-RES was > 100 µM (inactive) throughout. Also, the GI50 with PC-3 is > 100 µM (inactive); with OVCAR-4, > 100 µM (inactive); with RPMI-8226, 35.8 µM (inactive); with UACC-62, > 100 µM (inactive); in the test on SK-MEL-2, > 100 µM (inactive); with SR it was 24.2 µM (inactive). Also, the results for the GI50 with SF-539 and with UACC-257 were > 100 µM (inactive) and 53.6 µM (inactive), respectively.
